We go through 26 molecules from ChEMBL document CHEMBL1148418, “BMS-201620: a selective beta 3 agonist” (Bioorg Med Chem Lett, 2004).

SMILES strings stand for the structures.

For one assay, the system named is Monkey. The experiment in a line: Compound was tested for in vivo lipolysis in african green monkeys after iv administration. As to conditions: Cercopithecidae, in Primates. The format is functional.
Consider `COc1ccc([C@](C)(NC[C@H](O)c2ccc(O)c(NS(C)(=O)=O)c2)C(=O)Nc2ccc(Cl)cc2)cc1`, for which the ED50 is 0.07 mg/kg.

`CCOP(=O)(Cc1ccc(NC(=O)[C@@](C)(NC[C@H](O)c2ccc(O)c(NS(C)(=O)=O)c2)c2ccc(OC)cc2)cc1)OCC` registered an ED50 of 0.1 mg/kg. The same measure, in the same setting: in the case of `COc1ccc([C@H](NC[C@H](O)c2ccc(O)c(NS(C)(=O)=O)c2)C(=O)Nc2ccc3c(c2)OCO3)cc1` (stereo in doubt; 17) it was 0.08 mg/kg.

For the next assay, the species on record is Cavia porcellus. The assay can be described thus: Intrinsic activity was determined using spontaneously beating guinea pig atria by measuring contraction acceleration relative to isoproterenol response. The format is functional.
Settings: not given
Regarding `COc1ccc([C@](C)(NC[C@H](O)c2ccc(O)c(NS(C)(=O)=O)c2)C(=O)Nc2cccc(C)c2)cc1`, the IA is given as 73%.

`COc1ccc([C@](C)(NC[C@H](O)c2ccc(O)c(NS(C)(=O)=O)c2)C(=O)Nc2ccc(Cl)cc2F)cc1` gave an IA of 43%.

For `COc1ccc([C@](C)(NC[C@H](O)c2ccc(O)c(NS(C)(=O)=O)c2)C(=O)Nc2cccc(Cl)c2)cc1`, the IA is listed as 50%. `COc1ccc([C@](C)(NC[C@H](O)c2ccc(O)c(NS(C)(=O)=O)c2)C(=O)Nc2ccc(O)cc2)cc1` had an IA of 90%.

Consider `COc1ccc([C@](C)(NC[C@H](O)c2ccc(O)c(NS(C)(=O)=O)c2)C(=O)Nc2cc(Cl)cc(Cl)c2)cc1`, for which the IA is reported as 13%.

As to `COc1ccc([C@](C)(NC[C@H](O)c2ccc(O)c(NS(C)(=O)=O)c2)C(=O)Nc2ccc(Cl)c(Cl)c2)cc1`, the IA came to 8%.

The molecule `COc1ccc([C@](C)(NC[C@H](O)c2ccc(O)c(NS(C)(=O)=O)c2)C(=O)Nc2cccc(OC)c2)cc1` yielded an IA of 85%. `COc1ccc([C@](C)(NC[C@H](O)c2ccc(O)c(NS(C)(=O)=O)c2)C(=O)Nc2cc(OC)c(OC)c(OC)c2)cc1` returned an IA of 66%.

The molecule `COc1ccc([C@](C)(NC[C@H](O)c2ccc(O)c(NS(C)(=O)=O)c2)C(=O)Nc2cccc(CN)c2)cc1` displayed an IA of 91%. On the same count and under the same terms, in the case of `COc1ccc([C@](C)(NC[C@H](O)c2ccc(O)c(NS(C)(=O)=O)c2)C(=O)Nc2ccccc2C)cc1` it was 83%; in that of `COc1ccc([C@](C)(NC[C@H](O)c2ccc(O)c(NS(C)(=O)=O)c2)C(=O)Nc2cccc(Br)c2)cc1`, 50%; in that of `COc1ccc([C@](C)(NC[C@H](O)c2ccc(O)c(NS(C)(=O)=O)c2)C(=O)Nc2ccc(C)cc2)cc1`, 90%. Consider `COc1ccc([C@](C)(NC[C@H](O)c2ccc(O)c(NS(C)(=O)=O)c2)C(=O)Nc2cccc(O)c2)cc1`, for which the IA is 96%.

`COc1ccc([C@](C)(NC[C@H](O)c2ccc(O)c(NS(C)(=O)=O)c2)C(=O)Nc2ccc(Cl)cc2)cc1` registered an IA of 62%. The molecule `CCOP(=O)(Cc1ccc(NC(=O)[C@@](C)(NC[C@H](O)c2ccc(O)c(NS(C)(=O)=O)c2)c2ccc(OC)cc2)cc1)OCC` registered an IA of 55%. `COc1ccc([C@](C)(NC[C@H](O)c2ccc(O)c(NS(C)(=O)=O)c2)C(=O)Nc2ccccc2OC)cc1` displayed an IA of 60%. On the same count and under the same terms, in the case of `COc1ccc([C@](C)(NC[C@H](O)c2ccc(O)c(NS(C)(=O)=O)c2)C(=O)Nc2cccc(OCC(=O)O)c2)cc1` it was 87%. The same measure, in the same setting: the same measure for `COc1ccc([C@](C)(NC[C@H](O)c2ccc(O)c(NS(C)(=O)=O)c2)C(=O)Nc2ccc(OCC(=O)O)cc2)cc1`: 100%; for `COc1ccc([C@](C)(NC[C@H](O)c2ccc(O)c(NS(C)(=O)=O)c2)C(=O)Nc2cccc(OCCN(C)C)c2)cc1`: 85%; for `COc1ccc([C@](C)(NC[C@H](O)c2ccc(O)c(NS(C)(=O)=O)c2)C(=O)Nc2ccc3sc(C)nc3c2)cc1`: 70%. In the case of `COc1ccc([C@](C)(NC[C@H](O)c2ccc(O)c(NS(C)(=O)=O)c2)C(=O)Nc2ccc(OC)c(OC)c2)cc1`, the IA worked out at 89%.

As for `COc1ccc([C@](C)(NC[C@H](O)c2ccc(O)c(NS(C)(=O)=O)c2)C(=O)Nc2cc(Cl)c(Cl)c(Cl)c2)cc1`, the IA is on record as 15%. On the same count and under the same terms, the same measure for `COc1ccc([C@](C)(NC[C@H](O)c2ccc(O)c(NS(C)(=O)=O)c2)C(=O)Nc2ccc(OCCN(C)C)cc2)cc1`: 92%; for `COc1ccc(NC(=O)[C@@](C)(NC[C@H](O)c2ccc(O)c(NS(C)(=O)=O)c2)c2ccc(OC)cc2)cc1`: 85%. The molecule `COc1ccc([C@H](NC[C@H](O)c2ccc(O)c(NS(C)(=O)=O)c2)C(=O)Nc2ccccc2)cc1` (stereo in doubt; 16) displayed an IA of 95%.

`COc1ccc([C@H](NC[C@H](O)c2ccc(O)c(NS(C)(=O)=O)c2)C(=O)Nc2ccc3c(c2)OCO3)cc1` (stereo in doubt; 17) gave an IA of 93%.

One may read the ED50 as the midpoint of the dose-response relation.
